Assay results from US20050244490A1, “Dosing methods for beta-D-2',3'-dideoxy-2',3'-didehydro-5-fluorocytidine antiviral therapy” (priority 2003, published 2005).

Legend:
[1] = clinical; settings: in vivo
[2] = test system: wild type HIV-1; assay: Inhibition of wild type virus replication in MT-2 cells or PBMCs; format: cell-based; settings: Human immunodeficiency virus 1, MT2; wild type laboratory and clinical isolates of HIV-1
Text: The target concentration is that concentration where most mutant variants tested are suppressed by 90% or more.

[3] = test system: HIV viral load; assay: Viral load decline on repeated dosing, β-D-D4FC and competing nucleosides; format: in vivo; settings: 50 mg QD, duration of dosing 10
[4] = Cytotoxicity, MTT reduction; format: cell-based; settings: read-out: TC50
Method: Cytotoxicity was measured by reduction of the formazan dye MTT, which is catalyzed by mitochondrial succinate dehydrogenase.

[5] = Pharmacokinetics in the rhesus monkey; format: in vivo
[6] = target: M184V mutant RT (Human immunodeficiency virus type 1 group M subtype B, UniProt P04585, M771V); assay: biochemical; format: biochemical, HIV-1; settings: read-out: Ki for mutant RT
[7] = pbmc
[8] = in vivo; settings: dog, 15 mg/kg
[9] = target: T1, wild type HIV-RT (Human immunodeficiency virus type 1 group M subtype B, UniProt P04585); assay: Ki / Km for wild type HIV-RT; format: biochemical, HIV-1
T1 construct: The Ki value for β-D-D4FC-TP for wild type HIV-RT

[10] = in vivo; settings: rat
[11] = Safety and tolerability of single oral doses
Text: Total of 18 HIV-1 infected males, aged 18-55 years, enrolled, 6 per treatment cohort.

[12] = test system: AZT/3TC-resistant HIV-1 recombinant viruses; assay: microbe, parasite or virus in culture; format: cell-based
Method: A panel of 22 viruses was constructed in the HXB2 background using the Protease and RT sequences from clinical isolates to determine Virco Profiling against recombinant clinical isolates (see FIGS. 7a and 7b). Viruses contained 2 to 17 mutations in RT frequently associated with nucleoside resistance, including: M184V, M41L, D67N, T215Y. IC50 values were determined using a high through-put reporter virus assay.

Nc1nc(=O)n(C2C=CC(CO)O2)cc1F [β-D-D4FC, β-D-2′,3′-Didehydro-2′,3′-dideoxy-5-fluorocytidine]
half-life [1]: 6 to 15 h | IC90 [2]: 0.855 ± 0.4 µM | Viral Load Decline (log) [3]: −1.67 log | CC50 at 96 h ([4]; African green monkey, Vero cells): > 100 µM | CC50 at 144 h ([4]; PBMCs): > 100 µM | CC50 at 30 h ([4]; hamster, BHK-21 cells): > 30 µM | CC50 at 24 h ([4]; human, 293 cells): > 30 µM | CC50 at 48 h ([4]; human, Huh7 cells): > 30 µM | CC50 at 72 h ([4]; human, MT-2 cells): > 220 µM | plasma half-life ([5]; compared with AZT and 3TC): longer than either AZT or 3TC | clearance of parent ([5]; rhesus monkey, in vivo): low clearance | Ki [6]: 0.3 to 0.5 µM | Intracellular half life [7]: 13 to 17 h | AUC at 12 m ([8]; female): 431 µM·h | Cmax at 12 m ([8]; female): 69 µM | AUC at 12 m ([8]; male): 401 µM·h | Cmax at 12 m ([8]; male): 74 µM | Ki [9]: 0.1 µM | AUC at 28 d ([10]; 15 mg/kg): 70 µM·h | Cmax at 28 d ([10]; 15 mg/kg): 17 µM | AUC at 28 d ([10]; 45 mg/kg): 161 µM·h | Cmax at 28 d ([10]; 45 mg/kg): 44 µM | serious adverse events ([11]; any dose level): no serious adverse events | tolerability of single doses ([11]; in vivo): well tolerated | target value of parent compound for >90% suppression ([12]; AZT, 3TC and co-resistant variants): 5 µM | IC90 ([12]; Human immunodeficiency virus 1, read-out: Average IC90 for AZT/3TC-R virus): 5.5 µM | activity against multi-drug resistant strains ([12]; Q151M or D69S insertions plus at least 5 additional mutations): only weakly active | suppression of most mutant variants tested ([12]; at 5 μM in vitro): ≥ 90% | clinically significant HIV mutant strains inhibited ([12]; including AZT and 3TC resistant variants): more than 80% | reduction in activity ([12]; recombinant viruses with as many as 10 mutations incl. M41L, M184V, D67N, L74V, K70R, T215Y or K219Q): less than 5 fold
